Results on 15 compounds are retold here after patent publication US5118811A, “Amino acid derivatives possessing prolyl endopeptidase-inhibitory activities” (Japan Tobacco Inc., priority 1989, dated 1992).

One assay addresses T1, trypsin (Bos taurus, UniProt P00760).
T1 construct: purchased Sigma; host or cells: bovine pancreas
T1 sequence (P00760 24-246): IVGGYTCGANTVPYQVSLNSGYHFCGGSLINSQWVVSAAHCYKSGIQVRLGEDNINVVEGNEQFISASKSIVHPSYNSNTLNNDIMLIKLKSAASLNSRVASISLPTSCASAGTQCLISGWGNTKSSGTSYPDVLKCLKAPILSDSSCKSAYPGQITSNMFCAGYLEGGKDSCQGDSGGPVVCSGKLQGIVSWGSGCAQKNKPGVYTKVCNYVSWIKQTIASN
The assay can be described thus: Trypsin-Inhibitory Activity. Format: biochemical, bovine. To be noted: read-out: Inhibition rate, trypsin; for inhibition at 1 µM: 1 × 10^-6 M; for inhibition at 10 µM: 1 × 10^-5 M. The procedure: In the present invention, a 50 mM Tris-HCl buffer (pH 8.0) was employed as a buffer for measurement.
To a mixture of the above-mentioned buffer (850 μl), a solution of the compounds of the present invention in the same buffer (50 μl) and a 0.02 μM solution of trypsin (derived from bovine pancreas, Sigma) in the same buffer (50 μl) was added a 200 μM solution of 7-(prolyl-phenylaranyl-arginyl)-4-methylcoumarinamide (Peptide Institute, Inc.) in the same buffer (50 μl), and the mixture was incubated at 30° C. for 1 hour. The reaction mixture was immersed in ice (0° C.) to terminate the reaction, and the fluorescence (b1) was determined 1 hour later (excitation at 370 nm and emission at 440 nm). Concurrently, there were conducted the experiment wherein, in the system above, the trypsin solution was substituted for a buffer alone, and the experiment wherein the solution of the compounds of the present invention was also substituted for a buffer above. Each fluorescence (b2 and b3) was also determined respectively.
(§1) Using the fluorescence x1, x2 and x3 measured in the above-mentioned manner, the inhibitory rate against various proteases was calculated by the following formula where x stands for b, c, d, e or f: [formula]

The test system of a further assay is leucine aminopeptidase. As to the kind of experiment: Leucine Aminopeptidase-Inhibitory Activity. Format: biochemical, swine. The procedure:
Similarly, by following the procedure mentioned above, but employing a 50 mM Tris-HCl buffer (pH 8.0) as a buffer for measurement, a 0.2 μM solution of leucine aminopeptidase (derived from swine kidney, Sigma) in the same buffer as an enzyme solution and a 200 μM solution of 7-(leucyl-4-methylcoumarinamide (Peptide Institute, Inc.) in the same buffer as a substrate solution. Each fluorescence (d1, d2 and d3) was also determined, respectively.
as §1

In another assay the target is T2, chymotrypsin (Bos taurus, UniProt P00766).
T2 construct: purchased Sigma; host or cells: bovine pancreas
As to the kind of experiment: Chymotrypsin-Inhibitory Activity. To be noted: read-out: Inhibition rate, chymotrypsin; for inhibition at 1 µM: 1 × 10^-6 M; for inhibition at 10 µM: 1 × 10^-5 M. Format: biochemical, bovine. The method, then:
Similarly, by following the procedure mentioned above, but employing a 50 mM Tris-HCl buffer (pH 8.0) as a buffer for measurement, a 0.2 μM solution of chymotrypsin (derived from bovine pancrease, Sigma) in the same buffer as an enzyme solution and a 200 μM solution of 7-(N-succinyl-leucyl-leucyl-valyl-tyrosyl)-4-methylcoumarinamide (Peptide Institute, Inc.) in the same buffer as a substrate solution. Each fluorescence (c1, c2 and c3) was also determined, respectively.
as §1

The next assay concerns the target T3, cathepsin B (Bos taurus, UniProt P07688).
T3 construct: purchased Sigma; host or cells: bovine spleen
The assay can be described thus: Cathepsin B-Inhibitory Activity. The class given is biochemical, bovine. The settings on record: read-out: Inhibition rate, cathepsin B; for inhibition at 1 µM: 1 × 10^-6 M; for inhibition at 10 µM: 1 × 10^-5 M. The method, then:
Similarly, by following the procedure mentioned above, but employing a 100 mM sodium phosphate buffer (pH 6.0; containing 1.33 mM EDTA Na2) as a buffer for measurement, a 0.02 μM solution of cathepsin B (derived from bovine spleen, Sigma) in the same buffer as an enzyme solution and a 200 μM solution of 7-(N-benzyloxycarbonyl-phenylaranyl-arginyl)-4-methylcoumarinamide (Peptide Institute, Inc.) in the same buffer as a substrate solution. Each fluorescence (f1, f2 and f3) was also determined, respectively.
as §1

For a further assay, the target named is T4, elastase (Sus scrofa, UniProt P00772).
T4 construct: purchased Sigma; host or cells: swine pancreas
The assay can be described thus: Elastase-Inhibitory Activity. Format: biochemical, swine. The settings on record: read-out: Inhibition rate, elastase; for inhibition at 1 µM: 1 × 10^-6 M; for inhibition at 10 µM: 1 × 10^-5 M. The method, then: Similarly, by following the procedure mentioned above, but employing a 1 mM Tris-HCl buffer (pH 8.5) as a buffer for measurement, a 0.2 μM solution of elastase (derived from swine pancreas, Sigma) in the same buffer as an enzyme solution and a 200 μM solution of 7-(N-succinyl-aranyl-prolyl-aranyl)-4-methylcoumarinamide (Peptide Institute, Inc.) in the same buffer as a substrate solution. Each fluorescence (e1, e2 and e3) was also determined, respectively.
as §1

For a further assay, the target named is T5, prolyl endopeptidase (Rattus norvegicus, UniProt O70196).
T5 construct: prolyl endopeptidase extracted from rat brain; from tissue; host or cells: rat brain
The assay can be described thus: Prolyl Endopeptidase-Inhibitory Activity. Format: biochemical. To be noted: for IC50: prolyl endopeptidase extracted from rat brain, pH 7.0, 30° C., preincubated 30 minutes, 1 hour; for inhibition at 1 µM: 1 × 10^-6 M; for inhibition at 10 µM: 1 × 10^-5 M. The procedure:
A mixture of a 0.1M potassium sodium phosphate buffer (pH 7.0) (2675 μl), a solution of the compounds of the present invention in a 0.1M potassium sodium phosphate buffer (pH 7.0) (100 μl) and a solution of prolyl endopeptidase extracted from rat brain in a 25 mM sodium phosphate buffer (100 μl) [123 unit/1, pH 6.8, containing 1 mM dithiothreitol and 0.5 mM EDTA, prepared by the method described in J. Neurochem., 35, 527 (1980)] was preincubated at 30° C. for 30 minutes. Thereto was added a 0.2 mM solution of 7-(N-succinyl-glycyl-prolyl)-4-methylcoumarinamide (Peptide Institute, INC.) in a 0.1M potassium sodium phosphate buffer (pH 7.0) (125 μl), and the mixture was incubated at 30° C. for 1 hour. The reaction mixture was immersed in ice (0° C.) to terminate the reaction, and the fluorescence (a1) was determined ten minutes later (excitation at 370 nm and emission at 440 nm). Concurrently, there were conducted the experiment wherein, in the above system, the prolyl endopeptidase solution was substituted for a 25 mM sodium phosphate buffer (pH 6.8, containing 1 mM dithiothreitol and 0.5 mM EDTA) and the experiment wherein the solution of the compounds of the present invention was also substituted for a 0.1M potassium sodium phosphate buffer (pH 7.0). Each fluorescence (a2 and a3) was also determined respectively [See Tanpakushitsu Kakusan Koso, 29, 127 (1984)]. The prolyl endopeptidase-inhibition rate was calculated by the following formula, and IC50, a concentration of a compound producing 50% inhibition, was estimated by semilogarithmic graph paper. [formula]

Where [1] appears, read: read-out: Inhibition rate, prolyl endopeptidase.

As a reminder, the inhibition is the percentage by which the read-out fell short of the control. The term IC50 denotes the concentration that inhibits the measured activity by half.

Each structure is given as a SMILES string.

T4 sequence (P00772 27-266): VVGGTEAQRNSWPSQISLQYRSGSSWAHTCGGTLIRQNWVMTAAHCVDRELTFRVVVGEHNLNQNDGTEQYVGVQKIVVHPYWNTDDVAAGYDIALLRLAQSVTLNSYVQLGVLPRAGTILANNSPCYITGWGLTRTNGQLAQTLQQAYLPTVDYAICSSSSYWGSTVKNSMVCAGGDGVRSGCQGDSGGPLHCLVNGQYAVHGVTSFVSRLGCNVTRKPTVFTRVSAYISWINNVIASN
T5 sequence (O70196 whole entry): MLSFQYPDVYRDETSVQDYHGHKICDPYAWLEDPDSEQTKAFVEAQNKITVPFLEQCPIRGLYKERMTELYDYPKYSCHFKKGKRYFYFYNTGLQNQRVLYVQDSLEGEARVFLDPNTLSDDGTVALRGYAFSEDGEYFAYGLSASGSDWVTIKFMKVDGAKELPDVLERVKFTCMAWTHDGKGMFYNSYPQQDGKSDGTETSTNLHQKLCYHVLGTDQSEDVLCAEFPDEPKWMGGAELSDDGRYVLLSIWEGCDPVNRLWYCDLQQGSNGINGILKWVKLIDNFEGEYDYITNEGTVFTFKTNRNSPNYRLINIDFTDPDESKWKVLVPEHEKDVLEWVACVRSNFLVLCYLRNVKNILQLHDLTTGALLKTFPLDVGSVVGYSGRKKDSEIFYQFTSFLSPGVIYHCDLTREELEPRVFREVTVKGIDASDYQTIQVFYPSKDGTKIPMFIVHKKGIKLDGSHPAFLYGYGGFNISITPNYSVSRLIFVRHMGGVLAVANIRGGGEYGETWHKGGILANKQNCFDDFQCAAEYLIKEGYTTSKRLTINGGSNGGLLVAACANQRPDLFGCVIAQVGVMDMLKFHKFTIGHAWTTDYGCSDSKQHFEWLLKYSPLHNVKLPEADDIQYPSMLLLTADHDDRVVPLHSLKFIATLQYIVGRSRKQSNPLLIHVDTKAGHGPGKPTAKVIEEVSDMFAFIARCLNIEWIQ

Turning to `O=C[C@@H]1CCCN1C(=O)[C@@H]1CCCN1C(=O)CN1CCCC1=O` [Compound 4, N-[(2-Oxo-1-pyrrolidinyl)acetyl]-L-prolyl-L-prolinal], the inhibition at 0.01 µM on trypsin (1 × 10^-8 M) was found to be 0%; on chymotrypsin (1 × 10^-8 M) it was 0%; on cathepsin B (1 × 10^-8 M), 0%; at elastase (1 × 10^-8 M), 0%; at prolyl endopeptidase (1 × 10^-8 M, read-out: Inhibition rate, prolyl endopeptidase), 100%. The “Inhibition rate, leucine aminopeptidase” value in the assay on leucine aminopeptidase (1 × 10^-8 M) is on record as 0%. Further, at prolyl endopeptidase, the concentration for half-maximal inhibition (IC50) was 0.4 nM.
Consider `CC(=O)ON=C[C@@H]1CCCN1C(=O)CCC(=O)NCc1ccc(Cl)cc1` [Compound 21, (2S)-1-[4-Oxo-4-(4-chlorobenzylamino)butanoyl]-2-pyrrolidinecarboxaldehyde O-acetyloxime], for which the inhibition at 1 µM was found to be 10% at trypsin; 0% on chymotrypsin; 0% at cathepsin B; 0% on elastase; 100% at prolyl endopeptidase (setting [1]). The “Inhibition rate, leucine aminopeptidase” value in the assay with leucine aminopeptidase (1 × 10^-6 M) amounted to 0%. On prolyl endopeptidase, this compound displayed an IC50 of 40 nM.
`O=C[C@@H]1CSCN1C(=O)[C@@H]1CCCN1C(=O)CN1CCCC1=O` [Compound 5, N-[(2-Oxo-1-pyrrolidinyl)acetyl]-L-prolyl-L-thioprolinal] returned an IC50 at prolyl endopeptidase of 3 nM.
For `CC(=O)ON=C[C@@H]1CCCN1C(=O)[C@@H]1CCCN1C(=O)OCc1ccccc1` [Compound 15, (2S)-1-(N-Benzyloxycarbonyl-L-prolyl)-2-pyrrolidinecarboxaldehyde O-acetyloxime], the inhibition at 1 µM on trypsin was found to be 0%; at chymotrypsin, 0%; at cathepsin B it was 0%; on elastase it was 0%; on prolyl endopeptidase (setting [1]), 100%. Also, in the assay on leucine aminopeptidase (1 × 10^-6 M), the “Inhibition rate, leucine aminopeptidase” value turned out to be 0%. The compound further registered an IC50 on prolyl endopeptidase of 4.5 nM.
Regarding `O=C[C@@H]1CCCN1C(=O)CCC(=O)NCCCN1CCCC1=O` [Compound 11, N-{4-Oxo-4-[3-(2-oxo-1-pyrrolidinyl)propylamino]butanoyl}-L-prolinal], the inhibition at 1 µM on trypsin was 0%; on chymotrypsin it was 0%; on cathepsin B it was 0%; at elastase, 0%; on prolyl endopeptidase (setting [1]) it was 97%. Also, the “Inhibition rate, leucine aminopeptidase” value in the assay on leucine aminopeptidase (1 × 10^-6 M) was determined as 0%. The compound also displayed an IC50 on prolyl endopeptidase of 25 nM.
`CC(=O)ON=C[C@@H]1CSCN1C(=O)[C@@H]1CCCN1C(=O)CN1CCCC1=O` [Compound 23, (4R)-3-{N-[(2-Oxo-1-pyrrolidinyl)acetyl]-L-prolyl}-4-thiazolidinecarboxaldehyde O-acetyloxime]: the IC50 on prolyl endopeptidase was found to be 640 nM.
With `N#C[C@@H]1CSCN1C(=O)[C@@H]1CCCN1C(=O)CN1CCCC1=O` [Compound 24, (4R)-3-{N-[(2-Oxo-1-pyrrolidinyl)acetyl]-L-prolyl}-4-cyanothiazolidine], the midpoint of inhibition against prolyl endopeptidase, the IC50, lay at 34 nM.
As to `O=C([C@@H]1CCCN1C(=O)OCc1ccccc1)N1CCC[C@H]1C=NOCc1ccccc1` [Compound 18, (2S)-1-(N-Benzyloxycarbonyl-L-prolyl)-2-pyrrolidinecarboxaldehyde O-benzyloxime], the inhibition at 10 µM on trypsin was found to be 0%; at chymotrypsin it was 0%; at cathepsin B, 0%; at elastase, 0%; at prolyl endopeptidase (setting [1]), 100%. Further, the “Inhibition rate, leucine aminopeptidase” value in the assay on leucine aminopeptidase (1 × 10^-5 M) stood at 0%. The compound also showed an IC50 at prolyl endopeptidase of 40 nM.
In the case of `O=C([C@@H]1CCCN1C(=O)OCc1ccccc1)N1CCC[C@H]1C=NO` [Compound 12, (2S)-1-(N-Benzyloxycarbonyl-L-prolyl)-2-pyrrolidinecarboxaldehyde oxime], the inhibition at 10 µM at trypsin is 0%; at chymotrypsin, 0%; at cathepsin B, 0%; on elastase it was 0%; on prolyl endopeptidase (setting [1]), 100%. In addition, in the assay on leucine aminopeptidase (1 × 10^-5 M), the “Inhibition rate, leucine aminopeptidase” value is recorded as 0%. For the same compound, the IC50 at prolyl endopeptidase stood at 450 nM.
Regarding `CC(=O)ON=C[C@@H]1CSCN1C(=O)[C@@H]1CSCN1C(=O)OCc1ccccc1` [Compound 17, (4R)-3-(N-Benzyloxycarbonyl-L-thioprolyl)-4-thiazolidinecarboxaldehyde O-acetyloxime], the IC50 against prolyl endopeptidase was determined as 310 nM.
`O=C[C@@H]1CCCN1C(=O)CCC(=O)N1CCCC1=O` [Compound 10] came in with an IC50 on prolyl endopeptidase of 70 nM.
The same measure, in the same setting: for `O=C[C@@H]1CCCN1C(=O)[C@@H]1CSCN1C(=O)CN1CCCC1=O` [Compound 6, N-[(2-Oxo-1-pyrrolidinyl)acetyl]-L-thioprolyl-L-prolinal] the value was 1.5 nM; for `N#C[C@@H]1CSCN1C(=O)[C@@H]1CSCN1C(=O)OCc1ccccc1` [Compound 20, (4R)-3-(N-Benzyloxycarbonyl-L-thioprolyl)-4-cyanothiazolidine], 3.2 nM.
Turning to `O=C[C@@H]1CSCN1C(=O)[C@@H]1CSCN1C(=O)CN1CCCC1=O` [Compound 7, N-[(2-Oxo-1-pyrrolidinyl)acetyl]-L-thioprolyl-L-thioprolinal], at prolyl endopeptidase, the IC50 amounted to 5 nM.
`CC(=O)ON=C[C@@H]1CSCN1C(=O)[C@@H]1CCCN1C(=O)OCc1ccccc1` [Compound 16, (4R)-3-(N-Benzyloxycarbonyl-L-prolyl)-4-thiazolidinecarboxaldehyde O-acetyloxime] came in with an IC50 against prolyl endopeptidase of 100 nM.
